Data taken from patent publication US20240148835A1, “TREATING DISORDERS ASSOCIATED WITH DYRK1A DYSFUNCTION” (UNIVERSITY OF FLORIDA RESEARCH FOUNDATION, INCORPORATED, priority 2021, published 2024).
“Also recorded” adds a separate entry of the source.

Key:
Dyrk1a cHets = assay: Chronic (1-3)IGF-1 treatment from P14: behavioral battery; type: in vivo, mouse
Description: To determine whether chronic (1-3)IGF-1 administration ameliorates ASD-relevant behaviors, we conducted a behavioral battery to assay sociability and repetitive behaviors as well as locomotion, anxiety-like behavior, acoustic startle, and sensorimotor gating. […] Taken together, (1-3)IGF-1 treatment ameliorates morphological, neuronal, and behavioral deficits caused by cortical Dyrk1a mutations.
(§1) (1-3)IGF-1 was acquired from VWR/Bachem (catalog #H-2468.1000) and dissolved in saline with 0.01% BSA fresh every day. Intraperitoneal injections of 10 mg kg′ (1-3)IGF-1 or vehicle were delivered daily at 8 a.m. starting on P14 and ending on P85. […] The S6K1 inhibitor PF-4708671 was acquired from Medkoo Biosciences (#406432) dissolved in 10% DMSO, 10% tween 80 and 80% water. (1-3)IGF-1 (10 mg kg′) and PF-4708671 (50 mg kg^−1) or vehicle were injected subcutaneously into pups from P0 to P7. Rapamycin was acquired from LC laboratories (R-5000) and dissolved in 4% ethanol, 5% tween-80, and 5% PEG400 in PBS. (1-3)IGF-1 (10 mg kg′) and Rapamycin (1 mg kg′) or vehicle were injected subcutaneously into pups from P0 to P7. SB216763 was acquired from TOCRIS (#1616) and dissolved in 5% DMSO and 0.9% saline in dH20. SB216763 (0.5 mg kg′) was injected subcutaneously into pups from P0 to P7.
3 chamber social approach: Briefly, after at least 2 weeks housing under reversed light cycle, each mouse was habituated in the three-chamber box for 5 minutes before a stimulus mouse was placed into a tube in the “social” chamber. The stimulus mice used were young adult male mice. The time spent in each chamber (“mouse+tube”, “empty tube”, “center”) was hand-scored for sniffing time using Boris.
Marble burying: Male mice were placed individually in a cage with 5 cm of ¼″ corncob bedding and 20 black marbles (14.3 mm in diameter) arranged in a 4×5 matrix and left undisturbed for 30 min. The number of marbles that were at least two-thirds buried at the end of the trial were counted. […]

[1] = system: protein synthesis in the mPFC of cHets; assay: SUnSET puromycin incorporation assay (protein synthesis) in mPFC after (1-3)IGF-1 treatment; type: in vivo, mouse
Method: Protein synthesis is a critical output of mTOR signaling, particularly downstream of P70 Ribosomal S6 Kinase (S6K1).
as §1
300 μm coronal prefrontal cortical slices were obtained from postnatal day 7 (P7) and adult mice. Slices were allowed to recover in artificial cerebrospinal fluid (in mM: 124 NaCl, 2.8 KCl, 2 CaCl2, 1.25 NaH2P04, 1.25 MgSO4, 26 NaHCO3, 10 Dextrose) for 2 h at 32° C. Puromycin (5 μg ml-1) was applied to slices for 40 min at 32° C. to label newly synthesized proteins. Slices were then snap frozen on dry ice and stored at −80° C. until used. Protein (50 μg) was loaded on 4-12% gradient gels, transferred onto polyvinylidene difluoride membranes, and probed with anti-puromycin antibody (1:5,000, Millipore, MABE343). Anti-mouse HRP-tagged secondary antibody was used and chemiluminiscence was developed using standard ECL reagents. Quantification was done by measuring intensity of each lane from 14 to 191 kDa, subtracting it from the intensity of the unlabeled lane and normalized to loading control.

[2] = 3-chamber social approach, cHets

Substance: (1-3)IGF-1: a tripeptide cleaved from the N-terminus of IGF-1; acquired from VWR/Bachem, CAS No. 32302-76-4 (GPE; Insulin-like growth factor 1; UniProt P05019 49-51, looked up, fragment)
- preference index (Dyrk1a cHets; [2]): restored
- social interaction time (hand-scored) (Dyrk1a cHets; [2]): increased
- social deficit of cHets (time interacting with stimulus mouse, preference index) (Dyrk1a cHets; 3-chamber social approach, cHets, daily from P14): restored this social deficit in cHets
- sociability of controls (Dyrk1a cHets; 3-chamber social approach, controls): did not impact controls
- preference for stimulus mouse vs inanimate object within group, 3-chamber social approach (Dyrk1a cHets; all genotype X treatment groups): significant preference for interaction with a stimulus mouse; also recorded: significant preference for social interaction
- number of marbles buried by cHets (Dyrk1a cHets; marble burying, cHets): no effect; also recorded: subtle modification of the phenotype
- qualitative interaction with the marbles (Dyrk1a cHets; marble burying, cHets): qualitatively interaction with the marbles increased in cHets
- puromycin incorporation (protein synthesis) in adult cHets ([1]; adult, chronic treatment): significantly increased; also recorded: restores decreased protein synthesis
- puromycin incorporation in adult controls ([1]; adult, relative to vehicle-treated controls): significant decrease in puromycin incorporation
- puromycin incorporation (protein synthesis) in neonatal cHets ([1]; daily treatment from P0 to P7): increased puromycin abundance; also recorded: restores decreased protein synthesis
- puromycin incorporation in neonatal controls ([1]; daily treatment from P0 to P7): without impacting controls
